{"source": "patent US20110229878A1", "about": "“HUMAN CONSENSUS SODIUM-IODIDE SYMPORTER REPRESSOR (NIS-REPRESSOR) BINDING SITE” (priority 2010, published 2011)", "key": {"[1]": {"test_system": "hNIS transcription in KAK1 cells", "experiment": "Endogenous hNIS transcription in KAK1 cells", "assay_type": "cell-based, human", "excerpt": "(§1) Furthermore. […] PJ34 inhibition of PARP1 enzymatic activity may compromise the assembly, stability, or activity of the NIS-repressor protein complex."}, "[2]": {"test_system": "hNIS transcription in Cal-62 cells", "experiment": "Endogenous hNIS transcription in Cal-62 cells", "assay_type": "cell-based, human", "excerpt": "as §1"}, "NIS promoter constructs": {"test_system": "NIS promoter constructs", "experiment": "Luciferase activity from NIS promoter constructs", "assay_type": "cell-based, human", "excerpt": "as §1"}, "hNIS": {"test_system": "hNIS", "experiment": "Endogenous hNIS mRNA / transcription in thyroid cancer cells (cell line not given)", "assay_type": "cell-based, human", "excerpt": "Multiple cellular and nuclear factors are reported to be important for hNIS transcription, including: TSH (thyrotropin)/receptor (TSHr) (Riedel, et al. 2001), TTF-1 (Schmitt, et al. 2001), and Pax-8 (Pasca di Magliano, et al. 2000), but there are no clear examples of repressing transcription factors in thyroid cells or thyroid carcinomas. […] We also characterized NIS-repressor and investigated the identities of its components and mechanisms of its activity. This involved defining NRBS-P to a narrower region of hNIS promoter and utilizing it to probe nuclear extract, analyzing the probe-bound proteins with liquid chromatography coupled with tandem mass spectrometry (LC/MS/MS), to characterize NIS-repressor components. […] Pharmacological inhibition of PARP-1 activity with PJ34, a PARP-1 inhibitor, stimulated endogenous hNIS mRNA levels, providing evidence that PARP-1 acts as a negative regulatory factor for hNIS transcription and is a likely component of the NIS-repressor complex.\nIn summary, a second core sequence in the human sodium-iodine symporter (hNIS) promoter, NRBS-D, which is a binding site for a trans-active transcriptional repressor, NIS-repressor has been defined. […] A known inhibitor of PARP-1 enzymatic activity, PJ34, causes increased endogenous transcription of hNIS in genotypically verified thyroid cancer cells."}, "[3]": {"test_system": "NIS-repressor (KAK1 nuclear extract)", "experiment": "EMSA competition against radiolabeled Probe-A (NRBS-P), KAK1 nuclear extract", "assay_type": "binding, human", "details": "60× unlabeled annealed double-stranded oligonucleotide", "excerpt": "FIGS. 2A and 2B show the results of EMSA analysis followed by […] to define the core sequence for NRBS-D and cross competition of NRBS-D with NRBS-P. FIG. 2A depicts EMSA using KAK1 nuclear extract probed with radiolabeled SHIFT-4 containing NRBS-D in lanes 2 to 15. Unlabeled (30×) SHIFT-4, 4.1, 4.4, 4.2, 4.3, 4.5, 4.6, 4.7, and Probe-A were included in EMSA reactions in lanes 3, 4, 5, 6, 7, 11, 12, 13, and 15, respectively. The unlabeled (60×) annealed double-stranded oligonucleotides ds-411, ds-412, ds-413, and Comp-1 were added to the EMSA reactions in lanes 8, 9, 10, and 14, respectively. Lane 2 had no additional unlabeled competitor, and lane 1 contained radiolabeled SHIFT-4 probe only. In FIG. 2B, KAK1 nuclear extract was probed with radiolabeled Probe-A. The unlabeled 30× Probe-A, 60× annealed double-stranded Comp-1, and 60× annealed double-stranded ds-414 were added in EMSA reactions in lane 3, 4, and 5, respectively. The arrows point to the probe-specific bands.\nEMSA: EMSA is carried out as follows: 3 μL nuclear extract, 1 μL end-labeled probe, 1 μL Poly(dI-dC)-Poly(dI-dC) (0.01 U/μL in 100 mM KCl, 20 mM HEPES, pH 8.0), 1 μL Salmon sperm DNA (500 ng/μL in nuclease-free water), 5 μL 4×EMSA buffer (400 mM KCl, 80 mM HEPES, 0.8 mM EDTA, 80% glycerol, 0.5 mM DTT) are mixed and distilled nuclease-free water is added to bring the reaction mix to 18 μL. […]"}, "NIS-repressor": {"test_system": "NIS-repressor", "experiment": "EMSA pattern using KAK1 nuclear extract after epigenetic agents", "assay_type": "binding, human", "protocol": "EMSA: EMSA is carried out as follows: 3 μL nuclear extract, 1 μL end-labeled probe, 1 μL Poly(dI-dC)-Poly(dI-dC) (0.01 U/μL in 100 mM KCl, 20 mM HEPES, pH 8.0), 1 μL Salmon sperm DNA (500 ng/μL in nuclease-free water), 5 μL 4×EMSA buffer (400 mM KCl, 80 mM HEPES, 0.8 mM EDTA, 80% glycerol, 0.5 mM DTT) are mixed and distilled nuclease-free water is added to bring the reaction mix to 18 μL. The mixture is incubated on ice for 30 minutes, followed by addition of 2 μL of loading buffer (1×EMSA buffer, 0.25% Bromophenol Blue). A 7% non-denaturing PAGE gel is pre-run in 0.5×TBE (5.4 g/L Tris base, 2.75 g/L boric acid, 1 mM EDTA, pH 8.) for 30 minutes at 100V. The entire 20 μL EMSA reaction is loaded into one well of the polyacrylamide gel and run at 100V until the Bromophenol Blue dye has migrated to the end of the gel. The gel is dried on DEAE paper using a standard gel dryer and the dried gel is exposed to X-ray film. A retarded signal relative to free end-labeled probe indicates athe presence of a positive protein-probe interaction complex. When un-labeled DNA probe is added in the EMSA reaction mixture, loss of EMSA signal indicates the signal is probe-specific."}, "NIS transcription": {"test_system": "NIS transcription", "details": "Venkataraman et al. 1999; cited from earlier work"}, "chromatin compaction": {"test_system": "chromatin compaction", "details": "previous genomic DNase I digestion studies (Li et al. 2007); cited from earlier work"}}}
{"molecule": "CN(C)CC(=O)Nc1ccc2[nH]c(=O)c3ccccc3c2c1", "note": "[PJ34]", "values": [{"measurement": "endogenous hNIS transcription", "setting": "[1]", "result": "stimulated"}, {"measurement": "endogenous hNIS transcription", "setting": "[2]", "result": "stimulated"}, {"measurement": "luciferase activity from NIS promoter constructs", "setting": "NIS promoter constructs", "result": "effectively stimulated"}, {"measurement": "endogenous transcription of hNIS", "setting": "hNIS; genotypically verified thyroid cancer cells", "result": "increased"}, {"measurement": "endogenous hNIS mRNA levels", "setting": "hNIS; pharmacological inhibition of PARP-1 activity", "result": "stimulated"}]}
{"molecule": "ds-414: annealed double-stranded oligonucleotide 5′-ccttgttacagatggggaaactaaggccca-3′, −987 to −958 (SEQ ID NO.: 6) (sense CCTTGTTACAGATGGGGAAACTAAGGCCCA; annealed double-stranded unlabeled competitor, further chemistry not given here)", "values": [{"measurement": "competition against radiolabeled Probe-A in EMSA", "setting": "[3]", "result": "strong competition"}]}
{"molecule": "CCCC(=O)[O-].[Na+]", "note": "[sodium butyrate]", "values": [{"measurement": "effect on EMSA pattern", "setting": "NIS-repressor", "result": "did not alter"}, {"measurement": "NIS transcription", "setting": "NIS transcription", "result": "restore"}, {"measurement": "effect on chromatin compaction", "setting": "chromatin compaction", "result": "failed to demonstrate any effect"}]}
{"molecule": "Nc1ncn([C@@H]2O[C@H](CO)[C@@H](O)[C@H]2O)c(=O)n1", "note": "[5-azacytidine]", "values": [{"measurement": "effect on EMSA pattern", "setting": "NIS-repressor", "result": "did not alter"}, {"measurement": "NIS transcription", "setting": "NIS transcription", "result": "restore"}, {"measurement": "effect on chromatin compaction", "setting": "chromatin compaction", "result": "failed to demonstrate any effect"}]}
